Here are results for four molecules from US20250082781A1, “METHODS OF LOWERING BLOOD GLUCOSE AND TREATING TYPE 2 DIABETES BY ACTIVATION OF PDE4D3” (Salk Institute for Biological Studies, priority 2021, published 2025).

Series [1] concerns blood glucose levels. In words: Blood glucose levels in ob/ob mice. The settings on record: ad lib fed ob/ob mice, atglistatin 120 mg/kg p.o. It counts as in vivo, mouse. The protocol: (§1) Mice were kept in 12 h light/dark cycle in a temperature-controlled environment. Mice had free access to food and water unless noted otherwise. C57/B6 mice background was used unless noted otherwise. C57BL/6J and ob/ob (000632-B6. Cg-Lepob/J) male mice were obtained from Jackson Laboratory. PDE4D knock-out mice (034588-UCD) were obtained from MMRRC. For diet-induced obesity (DIO) studies, mice were fed a high fat diet (HFD) (60% fat, F3282; Bio-Serv) for minimum of 12 weeks to induce insulin resistance when diet-induced obese model is used. Insulin levels and blood glucose levels were monitored to confirm insulin resistance. To generate adipose-specific FGFR1 deletion, adiponectin-cre mice (B6; FVB-Tg (Adipoq-cre)1Evdr/J; Stock: 010803) were crossed to Fgfr1 flox/flox (B6.129S4-Fgfr1tm5.1Sor/J; Stock: 00767) mice. For AAV mediated expression of target proteins in adipose tissue, 5×10E+11 genomic copies of AAV were injected via tail vein or retro-orbital route.
(§2) Recombinant FGF1 (rFGF1) was dissolved in phosphate-buffered saline (PBS) at a concentration of 0.2 mg/ml and was injected subcutaneously at a 0.5 mg kg^−1 dose. Blood glucose was monitored at indicated time points after injection. For initial measurements (2-4 h) food was removed after injection to exclude any indirect effects stemming from anorexigenic effects of FGF1. PDE4 inhibitor roflumilast stock in DMSO was diluted at 1 mg/ml in 30% captisol, pH 10 and delivered to mice thorough oral gavage at 5 mg kg^−1 dose. PDE3 inhibitor cilostamide stock in DMSO was diluted at 2 mg/ml in 30% captisol and delivered through intraperitoneal injection at 10 mg kg^−1 dose.

The subject of series [2] is serum FFA levels. In words: Serum FFA levels in DIO mice. It counts as in vivo, mouse. The settings on record: ad lib fed DIO mice, roflumilast 5 mg/kg p.o., 1 h. The protocol: as §1, §2
For series [3], the system named is HSL phosphorylation at S660. As to the kind of experiment: Western blot of pHSL-S660 in 3T3-L1 adipocytes. It counts as cell-based. The following applies: basal and ISO-stimulated cells, roflumilast 2 μM. The protocol:
Tissues were lysed in cold lysis buffer (50 mM Tris, pH 7.5, 150 mM NaCl, 1% NP40, 0.5% NaDoc, 0.1% SDS, 5% glycerol, 1 mM EDTA, protease and phosphatase inhibitors (complete and PhosSTOP (Roche)) by homogenization by bead-beater for 30 s. Samples were cleared for 10 min at 18,000 g at 4° C. and the middle clear phase was transferred to new tubes. A second 30 min centrifugation was performed and the middle clear phase was transferred to new tubes. Five ul protein extract was used for BCA assay to determine protein concentration. Samples were boiled in Laemmli buffer. SDS-PAGE and blotting were performed using gradient gels and Trans-Blot Turbo Transfer System (Bio-Rad). Antibodies used were PDE4D (12918-1-AP, Proteintech), pHSL-660 (4126S, Cell signaling), HSL (4107S, Cell Signaling), tubulin (CP06, Millipore Sigma), and GFP (A01388, GenScript). PDE4D3-pS44 phospho-specific antibody was generated using PDE4D3-S44 FRRHpSWISFDVDNGTSAGR peptide (SEQ ID NO: 20) (Mackenzie et al., 2002) by Pocono Rabbit Farm, using 70-day rabbit antibody production protocol and purified via affinity purification. Primary antibodies were incubated for 2 h at room temperature (RT) or overnight (ON) at 4° C. Blots were developed using SuperSignal West Pico PLUS Chemiluminescent Substrate (ThermoFisher Scientific) and imaged with BioRad GelDoc system.

In series [4] the test system is blood glucose levels. As to the kind of experiment: Blood glucose levels in DIO mice. It counts as in vivo, mouse. The following applies: roflumilast 5 mg/kg p.o. On the procedure: as §1, §2
Series [5] in a line: Serum insulin levels in DIO mice. It counts as in vivo, mouse. The settings on record: ad lib fed DIO mice, roflumilast 5 mg/kg p.o., 1 h. The protocol: as §1
Recombinant FGF1 (rFGF1) was dissolved in phosphate-buffered saline (PBS) at a concentration of 0.2 mg/ml and was injected subcutaneously at a 0.5 mg kg^−1 dose. Blood glucose was monitored at indicated time points after injection. For initial measurements (2-4 h) food was removed after injection to exclude any indirect effects stemming from anorexigenic effects of FGF1. […]

For series [6], the target named is FGFR1 on mouse adipocytes (mouse) (UniProt P16092). In words: cell-based or functional assay.
Series [7] deals with T1, GFP-tagged perilipin (perilipin-GFP), Q8CGN5.
T1 chain: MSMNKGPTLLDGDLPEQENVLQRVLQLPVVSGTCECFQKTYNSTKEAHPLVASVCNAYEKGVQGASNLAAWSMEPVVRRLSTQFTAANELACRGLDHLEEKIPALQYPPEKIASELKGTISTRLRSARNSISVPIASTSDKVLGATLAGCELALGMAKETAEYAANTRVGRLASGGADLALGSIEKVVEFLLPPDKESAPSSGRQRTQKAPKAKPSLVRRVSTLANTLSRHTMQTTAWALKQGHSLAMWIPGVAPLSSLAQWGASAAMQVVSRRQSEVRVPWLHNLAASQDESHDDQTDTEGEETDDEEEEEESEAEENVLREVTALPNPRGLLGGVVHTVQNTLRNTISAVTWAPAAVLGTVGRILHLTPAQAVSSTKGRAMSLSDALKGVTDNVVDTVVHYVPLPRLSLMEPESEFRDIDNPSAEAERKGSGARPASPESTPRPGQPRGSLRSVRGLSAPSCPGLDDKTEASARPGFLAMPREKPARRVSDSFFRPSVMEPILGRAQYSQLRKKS

Chain of UniProt P16092 (P16092 22-822): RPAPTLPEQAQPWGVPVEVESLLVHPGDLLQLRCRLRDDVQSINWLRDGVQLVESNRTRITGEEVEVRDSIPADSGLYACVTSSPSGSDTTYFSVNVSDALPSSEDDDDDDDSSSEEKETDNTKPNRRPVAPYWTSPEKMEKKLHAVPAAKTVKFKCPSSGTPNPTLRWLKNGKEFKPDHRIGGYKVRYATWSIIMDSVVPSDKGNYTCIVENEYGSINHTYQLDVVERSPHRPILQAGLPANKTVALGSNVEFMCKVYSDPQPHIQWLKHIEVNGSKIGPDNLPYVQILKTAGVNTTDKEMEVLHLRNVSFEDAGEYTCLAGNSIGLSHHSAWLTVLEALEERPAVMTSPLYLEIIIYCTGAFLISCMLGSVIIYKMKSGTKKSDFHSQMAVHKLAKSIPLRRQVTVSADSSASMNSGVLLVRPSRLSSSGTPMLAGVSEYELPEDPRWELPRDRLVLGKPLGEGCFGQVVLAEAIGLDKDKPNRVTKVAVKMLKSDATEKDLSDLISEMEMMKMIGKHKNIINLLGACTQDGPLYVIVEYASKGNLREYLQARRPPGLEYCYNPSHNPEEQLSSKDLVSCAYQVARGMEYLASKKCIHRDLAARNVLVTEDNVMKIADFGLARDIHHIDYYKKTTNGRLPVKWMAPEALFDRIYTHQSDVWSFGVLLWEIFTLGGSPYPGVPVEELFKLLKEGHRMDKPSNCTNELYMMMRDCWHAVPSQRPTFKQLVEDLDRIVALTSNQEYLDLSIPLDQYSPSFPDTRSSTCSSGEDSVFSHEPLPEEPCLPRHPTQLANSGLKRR

As for `CN(C)C(=O)Nc1cccc(-c2ccc(N(C)C)cc2)c1` [Atglistatin, reference compound], in series [1], the blood glucose levels result is given as “rapidly lowered blood glucose levels”.

`O=C(Nc1c(Cl)cncc1Cl)c1ccc(OC(F)F)c(OCC2CC2)c1` [roflumilast, reference compound]: in series [2], the “serum FFA” value was “transiently increased”. Further, the “ability of FGF1 to suppress HSL phosphorylation in presence of roflumilast” value in series [3] is “lost”. For the same molecule, the blood glucose entry in series [4] (ad lib fed DIO mice) is listed as “transiently increased”. For the same molecule, the blood glucose levels result in series [4] (fasted DIO mice) was “more sustained increase in blood glucose levels”. Further, the insulin levels entry in series [5] is “transiently increased”.

For the molecule Recombinant FGF1 (rFGF1) (ligand), the serum FFA levels in DIO adR1WT and adR1KO mice in series [6] was found to be 30%.

B1: mCherry-tagged HSL (HSL-mCherry) (protein)
chain: MDLRTMTQSLVTLAEDNMAFFSSQGPGETARRLSNVFAGVREQALGLEPTLGQLLGVAHHFDLDTETPANGYRSLVHTARCCLAHLLHKSRYVASNRKSIFFRASHNLAELEAYLAALTQLRAMAYYAQRLLTINRPGVLFFEGDEGLTADFLQEYVTLHKGCFYGRCLGFQFTPAIRPFLQTLSIGLVSFGEHYKRNETGLSVTASSLFTGGRFAIDPELRGAEFERIIQNLDVHFWKAFWNITEIEVLSSLANMASTTVRVSRLLSLPPEAFEMPLTSDPRLTVTISPPLAHTGPAPVLARLISYDLREGQDSKVLNSLAKSEGPRLELRPRPHQAPRSRALVVHIHGGGFVAQTSKSHEPYLKNWAQELGVPIFSIDYSLAPEAPFPRALEECFFAYCWAVKHCDLLGSTGERICLAGDSAGGNLCITVSLRAAAYGVRVPDGIMAAYPVTTLQSSASPSRLLSLMDPLLPLSVLSKCVSAYSGTEAEDHFDSDQKALGVMGLVQRDTSLFLRDLRLGASSWLNSFLELSGRKPQKTTSPTAESVRPTESMRRSVSEAALAQPEGLLGTDTLKKLTIKDLSNSEPSDSPEMSQSMETLGPSTPSDVNFFLRPGNSQEEAEAKDEVRPMDGVPRVRAAFPEGFHPRRSSQGVLHMPLYTSPIVKNPFMSPLLAPDSMLKTLPPVHLVACALDPMLDDSVMFARRLRDLGQPVTLKVVEDLPHGFLSLAALCRETRQATEFCVQRIRLILTPPAAPLN
For B1, in series [7], the “co-localization of perilipin-GFP and HSL-mCherry in live 3T3-L1 adipocytes (fluorescence overlap, confocal microscopy)” value is “FGF1 reduced the isoproterenol-induced co-localization of perilipin-GFP and HSL-mCherry”.
